Measurements from paper PMC9851200, “Multiparameter phenotypic screening for endogenous TFEB and TFE3 translocation identifies novel chemical series modulating lysosome function” (Autophagy, 2022).

Assays:
Format in all cases: binding
[1] = biological target: T1, kinases (KINOMEscan panel) (Homo sapiens, UniProt Q15835); conditions: NEW KINOMEscan
T1 sequence (Q15835 1-563): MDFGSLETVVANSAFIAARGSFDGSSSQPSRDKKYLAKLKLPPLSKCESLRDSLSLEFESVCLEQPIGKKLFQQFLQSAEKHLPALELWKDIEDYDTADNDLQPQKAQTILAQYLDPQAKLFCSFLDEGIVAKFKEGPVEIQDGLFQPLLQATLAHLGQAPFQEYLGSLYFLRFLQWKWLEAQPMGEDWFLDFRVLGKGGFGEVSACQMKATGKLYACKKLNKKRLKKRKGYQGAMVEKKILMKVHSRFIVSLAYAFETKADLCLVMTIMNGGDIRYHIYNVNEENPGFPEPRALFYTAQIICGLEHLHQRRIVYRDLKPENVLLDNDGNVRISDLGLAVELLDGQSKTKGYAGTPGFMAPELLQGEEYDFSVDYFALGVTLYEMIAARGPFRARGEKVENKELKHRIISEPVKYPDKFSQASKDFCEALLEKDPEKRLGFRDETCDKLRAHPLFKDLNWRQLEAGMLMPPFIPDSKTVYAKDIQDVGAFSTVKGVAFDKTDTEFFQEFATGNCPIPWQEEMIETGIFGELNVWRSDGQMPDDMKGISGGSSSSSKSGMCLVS

[2] = biological target: kinases (KINOMEscan panel) (Homo sapiens, UniProt P16591); conditions: FER; NEW KINOMEscan
kinases (KINOMEscan panel) (Homo sapiens, UniProt P16591), sequence (P16591 whole entry): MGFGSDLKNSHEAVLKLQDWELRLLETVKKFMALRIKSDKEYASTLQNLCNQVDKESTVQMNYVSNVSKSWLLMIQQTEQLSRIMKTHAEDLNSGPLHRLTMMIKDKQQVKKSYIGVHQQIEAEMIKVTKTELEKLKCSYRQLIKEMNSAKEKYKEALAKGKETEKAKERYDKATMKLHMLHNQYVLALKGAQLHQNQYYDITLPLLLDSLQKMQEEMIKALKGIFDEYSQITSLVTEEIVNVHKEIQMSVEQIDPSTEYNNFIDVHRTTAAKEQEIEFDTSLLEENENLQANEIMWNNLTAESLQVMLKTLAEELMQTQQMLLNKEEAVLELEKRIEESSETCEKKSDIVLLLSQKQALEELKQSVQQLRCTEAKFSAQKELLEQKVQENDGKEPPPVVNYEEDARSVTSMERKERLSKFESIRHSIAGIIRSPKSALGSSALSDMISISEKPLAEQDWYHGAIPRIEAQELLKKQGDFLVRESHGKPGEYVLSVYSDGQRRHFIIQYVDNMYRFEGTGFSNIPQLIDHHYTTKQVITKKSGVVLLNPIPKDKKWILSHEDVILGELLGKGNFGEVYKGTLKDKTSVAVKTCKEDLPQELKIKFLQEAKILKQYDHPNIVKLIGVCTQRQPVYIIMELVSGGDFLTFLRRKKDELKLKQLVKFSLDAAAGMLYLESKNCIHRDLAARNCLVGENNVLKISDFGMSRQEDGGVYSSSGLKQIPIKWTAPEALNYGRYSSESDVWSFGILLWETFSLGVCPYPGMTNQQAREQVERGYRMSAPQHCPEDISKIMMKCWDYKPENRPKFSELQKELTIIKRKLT

[3] = biological target: T2, kinases (KINOMEscan panel) (Homo sapiens, UniProt P29322); conditions: kinase EPHA8; NEW KINOMEscan
T2 sequence (P29322 28-1005): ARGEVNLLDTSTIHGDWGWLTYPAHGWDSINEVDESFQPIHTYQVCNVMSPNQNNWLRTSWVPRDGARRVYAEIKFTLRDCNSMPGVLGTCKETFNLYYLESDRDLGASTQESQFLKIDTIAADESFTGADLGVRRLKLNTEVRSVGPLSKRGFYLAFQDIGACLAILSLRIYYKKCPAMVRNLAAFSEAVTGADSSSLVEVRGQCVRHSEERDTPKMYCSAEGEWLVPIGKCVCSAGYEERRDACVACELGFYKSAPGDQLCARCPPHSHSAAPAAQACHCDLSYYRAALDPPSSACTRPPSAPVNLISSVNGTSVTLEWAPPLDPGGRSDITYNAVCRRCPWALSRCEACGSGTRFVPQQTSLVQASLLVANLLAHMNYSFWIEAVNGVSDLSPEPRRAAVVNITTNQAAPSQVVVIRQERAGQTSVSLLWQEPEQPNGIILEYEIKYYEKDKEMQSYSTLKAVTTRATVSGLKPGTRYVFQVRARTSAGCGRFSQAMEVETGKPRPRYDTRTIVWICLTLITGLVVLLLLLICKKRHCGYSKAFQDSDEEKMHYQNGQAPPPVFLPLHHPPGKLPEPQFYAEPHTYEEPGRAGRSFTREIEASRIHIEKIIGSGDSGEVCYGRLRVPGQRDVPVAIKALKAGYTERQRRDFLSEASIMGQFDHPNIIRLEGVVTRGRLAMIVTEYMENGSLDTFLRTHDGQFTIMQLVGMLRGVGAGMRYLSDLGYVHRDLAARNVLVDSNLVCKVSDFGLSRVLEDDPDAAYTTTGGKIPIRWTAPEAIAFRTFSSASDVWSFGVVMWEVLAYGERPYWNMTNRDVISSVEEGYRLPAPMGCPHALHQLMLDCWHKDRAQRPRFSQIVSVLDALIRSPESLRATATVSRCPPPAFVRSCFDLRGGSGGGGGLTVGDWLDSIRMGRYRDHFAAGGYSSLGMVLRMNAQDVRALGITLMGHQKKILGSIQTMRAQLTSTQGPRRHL

[4] = biological target: T3, kinases (KINOMEscan panel) (Homo sapiens, UniProt O00141); conditions: kinase SGK1; NEW KINOMEscan
T3 sequence (O00141 1-431): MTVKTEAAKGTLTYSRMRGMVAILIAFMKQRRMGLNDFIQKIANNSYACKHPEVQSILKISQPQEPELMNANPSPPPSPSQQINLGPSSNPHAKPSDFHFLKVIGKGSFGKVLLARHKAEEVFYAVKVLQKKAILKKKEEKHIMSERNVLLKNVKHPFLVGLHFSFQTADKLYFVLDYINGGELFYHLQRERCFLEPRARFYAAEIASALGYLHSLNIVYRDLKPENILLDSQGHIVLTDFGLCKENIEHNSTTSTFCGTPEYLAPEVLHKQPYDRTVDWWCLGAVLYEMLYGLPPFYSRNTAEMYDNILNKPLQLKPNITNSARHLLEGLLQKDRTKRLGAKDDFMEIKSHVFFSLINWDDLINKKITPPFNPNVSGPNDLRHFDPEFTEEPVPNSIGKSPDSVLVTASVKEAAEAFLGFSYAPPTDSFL

Compound | KINOMEscan GRK1 [1] | KINOMEscan FER [2] | KINOMEscan EPHA8 [3] | KINOMEscan SGK1 [4]
Cc1cccc(-c2nc(Nc3ccc4nn(C)cc4c3)c3ccccc3n2)n1 [NK167] | 37 | 0 | 0 | 0
Cc1cccc(-c2nc(N(C)c3ccc4ncsc4c3)c3ccccc3n2)n1 [NK-161] | 25 | 0 | 0 | 14
